Publication PMC7265341, “Quantifying CDK inhibitor selectivity in live cells” (Nature Communications, 2020)
Where two headings read alike, the source gives them in different places.

Legend:
[1] = target: CDK9/Cyclin K (Homo sapiens, UniProt P50750); assay: NanoBRET live-cell target engagement, NanoLuc-CDK9/Cyclin K in HEK-293; format: binding; conditions: CDK9/K
[2] = target: T1, CDK11A/Cyclin L2 (Homo sapiens, UniProt Q9UQ88); assay: NanoBRET live-cell target engagement, CDK11A-NanoLuc/Cyclin L2 in HEK-293; format: binding; conditions: CDK11a/L2
T1 sequence (Q9UQ88 1-783): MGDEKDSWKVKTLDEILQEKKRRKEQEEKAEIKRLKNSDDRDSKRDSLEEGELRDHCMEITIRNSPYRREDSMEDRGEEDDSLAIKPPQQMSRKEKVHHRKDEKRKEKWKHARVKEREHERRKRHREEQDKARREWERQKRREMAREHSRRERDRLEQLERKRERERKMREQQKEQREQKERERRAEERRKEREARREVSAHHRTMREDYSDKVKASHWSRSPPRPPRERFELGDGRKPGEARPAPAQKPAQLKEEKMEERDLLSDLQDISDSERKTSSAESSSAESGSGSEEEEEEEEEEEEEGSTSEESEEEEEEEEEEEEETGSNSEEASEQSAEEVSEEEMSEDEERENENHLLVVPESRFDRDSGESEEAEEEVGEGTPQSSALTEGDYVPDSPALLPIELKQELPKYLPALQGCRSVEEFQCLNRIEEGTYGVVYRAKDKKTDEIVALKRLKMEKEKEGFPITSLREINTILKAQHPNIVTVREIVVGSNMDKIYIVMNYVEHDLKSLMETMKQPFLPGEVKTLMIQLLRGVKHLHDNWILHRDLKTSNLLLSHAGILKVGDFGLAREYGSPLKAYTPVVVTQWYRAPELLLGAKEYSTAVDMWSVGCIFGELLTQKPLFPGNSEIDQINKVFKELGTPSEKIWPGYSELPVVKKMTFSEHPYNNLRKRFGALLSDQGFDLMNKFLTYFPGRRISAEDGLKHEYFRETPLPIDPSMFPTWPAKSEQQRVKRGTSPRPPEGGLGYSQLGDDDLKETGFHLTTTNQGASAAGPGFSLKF

[3] = target: CDK11B/Cyclin L2 (Homo sapiens, UniProt P21127); assay: NanoBRET live-cell target engagement, CDK11B-NanoLuc/Cyclin L2 in HEK-293; format: binding; conditions: CDK11b/L2; for IC50: read-out: IC50
[4] = target: CDK12/Cyclin K (Homo sapiens, UniProt Q9NYV4); assay: NanoBRET live-cell target engagement, CDK12-NanoLuc/Cyclin K in HEK-293; format: binding; conditions: CDK12/K
[5] = target: CDK13/Cyclin K (Homo sapiens, UniProt Q14004); assay: NanoBRET live-cell target engagement, CDK13-NanoLuc/Cyclin K in HEK-293; format: binding; conditions: CDK13/K
[6] = target: CDK14/Cyclin Y (Homo sapiens, UniProt O94921); assay: NanoBRET live-cell target engagement, CDK14-NanoLuc/Cyclin Y in HEK-293; format: binding; conditions: CDK14/Y
[7] = target: CDK15/Cyclin Y (Homo sapiens, UniProt Q96Q40); assay: NanoBRET live-cell target engagement, NanoLuc-CDK15/Cyclin Y in HEK-293; format: binding
[8] = target: CDK16/Cyclin Y (Homo sapiens, UniProt Q00536); assay: NanoBRET live-cell target engagement, CDK16-NanoLuc/Cyclin Y in HEK-293; format: binding; conditions: CDK16/Y; for IC50: read-out: IC50
[9] = target: CDK17/Cyclin Y (Homo sapiens, UniProt Q00537); assay: NanoBRET live-cell target engagement, CDK17-NanoLuc/Cyclin Y in HEK-293; format: binding; conditions: CDK17/Y; for IC50: read-out: IC50
[10] = target: CDK20/Cyclin H (Homo sapiens, UniProt Q8IZL9); assay: NanoBRET live-cell target engagement, NanoLuc-CDK20/Cyclin H in HEK-293; format: binding; conditions: CDK20/H
[11] = target: CDK19/Cyclin C (Homo sapiens, UniProt Q9BWU1); assay: NanoBRET live-cell target engagement, NanoLuc-CDK19/Cyclin C in HEK-293; conditions: CDK19/C
[12] = target: CDK10/Cyclin L2 (Homo sapiens, UniProt Q15131); assay: NanoBRET live-cell target engagement, CDK10-NanoLuc/Cyclin L2 in HEK-293; conditions: CDK10/L2
CDK10/Cyclin L2, sequence (Q15131 whole entry): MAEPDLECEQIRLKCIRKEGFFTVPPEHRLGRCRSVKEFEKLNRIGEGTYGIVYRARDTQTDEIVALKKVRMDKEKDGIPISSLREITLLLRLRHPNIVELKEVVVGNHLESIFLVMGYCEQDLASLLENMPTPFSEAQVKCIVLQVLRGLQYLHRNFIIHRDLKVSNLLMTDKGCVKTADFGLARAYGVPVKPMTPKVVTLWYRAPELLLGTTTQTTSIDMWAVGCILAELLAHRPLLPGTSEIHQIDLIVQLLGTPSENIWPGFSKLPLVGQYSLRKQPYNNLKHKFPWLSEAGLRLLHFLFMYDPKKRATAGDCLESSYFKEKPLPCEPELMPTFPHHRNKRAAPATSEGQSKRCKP

CDK12/Cyclin K, sequence (Q9NYV4 1-1481 isoform Q9NYV4-2): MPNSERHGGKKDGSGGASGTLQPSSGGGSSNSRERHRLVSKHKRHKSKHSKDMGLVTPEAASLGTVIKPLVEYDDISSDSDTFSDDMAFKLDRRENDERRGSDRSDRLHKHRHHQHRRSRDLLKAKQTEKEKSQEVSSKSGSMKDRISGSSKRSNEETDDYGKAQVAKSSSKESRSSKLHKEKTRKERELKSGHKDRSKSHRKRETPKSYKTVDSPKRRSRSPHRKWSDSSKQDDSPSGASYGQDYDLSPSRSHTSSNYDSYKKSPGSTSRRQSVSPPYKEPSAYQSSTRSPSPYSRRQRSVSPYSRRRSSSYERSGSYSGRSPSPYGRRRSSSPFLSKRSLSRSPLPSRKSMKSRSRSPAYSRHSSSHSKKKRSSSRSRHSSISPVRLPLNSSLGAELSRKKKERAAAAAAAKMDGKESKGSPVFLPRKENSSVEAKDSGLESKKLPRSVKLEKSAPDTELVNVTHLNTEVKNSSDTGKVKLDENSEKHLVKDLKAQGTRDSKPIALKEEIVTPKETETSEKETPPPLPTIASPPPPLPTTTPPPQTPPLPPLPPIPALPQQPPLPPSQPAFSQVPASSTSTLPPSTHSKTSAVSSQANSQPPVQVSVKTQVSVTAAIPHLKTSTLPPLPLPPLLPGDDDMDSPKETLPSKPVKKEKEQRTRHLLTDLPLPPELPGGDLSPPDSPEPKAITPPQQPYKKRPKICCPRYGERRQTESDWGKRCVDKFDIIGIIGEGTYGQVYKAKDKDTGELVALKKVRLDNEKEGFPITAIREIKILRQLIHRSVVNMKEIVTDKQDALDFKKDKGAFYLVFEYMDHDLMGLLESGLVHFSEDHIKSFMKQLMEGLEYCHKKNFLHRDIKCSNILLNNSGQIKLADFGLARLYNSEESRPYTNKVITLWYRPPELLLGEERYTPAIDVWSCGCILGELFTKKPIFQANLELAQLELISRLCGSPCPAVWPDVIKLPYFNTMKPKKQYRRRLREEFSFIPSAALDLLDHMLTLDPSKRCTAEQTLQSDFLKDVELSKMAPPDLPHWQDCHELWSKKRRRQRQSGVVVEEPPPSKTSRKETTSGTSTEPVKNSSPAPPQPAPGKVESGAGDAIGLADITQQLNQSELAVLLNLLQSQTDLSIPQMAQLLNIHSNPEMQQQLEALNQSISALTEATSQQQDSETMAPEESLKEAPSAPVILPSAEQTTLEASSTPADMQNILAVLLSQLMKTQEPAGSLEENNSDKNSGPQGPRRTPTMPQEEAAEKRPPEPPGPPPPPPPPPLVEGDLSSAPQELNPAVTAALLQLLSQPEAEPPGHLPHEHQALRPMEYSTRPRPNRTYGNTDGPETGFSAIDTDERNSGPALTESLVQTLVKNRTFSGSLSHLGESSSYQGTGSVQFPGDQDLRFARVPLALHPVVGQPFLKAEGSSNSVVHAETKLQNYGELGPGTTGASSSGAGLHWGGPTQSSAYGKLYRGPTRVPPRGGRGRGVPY
CDK12/Cyclin K, sequence (O75909 whole entry partner): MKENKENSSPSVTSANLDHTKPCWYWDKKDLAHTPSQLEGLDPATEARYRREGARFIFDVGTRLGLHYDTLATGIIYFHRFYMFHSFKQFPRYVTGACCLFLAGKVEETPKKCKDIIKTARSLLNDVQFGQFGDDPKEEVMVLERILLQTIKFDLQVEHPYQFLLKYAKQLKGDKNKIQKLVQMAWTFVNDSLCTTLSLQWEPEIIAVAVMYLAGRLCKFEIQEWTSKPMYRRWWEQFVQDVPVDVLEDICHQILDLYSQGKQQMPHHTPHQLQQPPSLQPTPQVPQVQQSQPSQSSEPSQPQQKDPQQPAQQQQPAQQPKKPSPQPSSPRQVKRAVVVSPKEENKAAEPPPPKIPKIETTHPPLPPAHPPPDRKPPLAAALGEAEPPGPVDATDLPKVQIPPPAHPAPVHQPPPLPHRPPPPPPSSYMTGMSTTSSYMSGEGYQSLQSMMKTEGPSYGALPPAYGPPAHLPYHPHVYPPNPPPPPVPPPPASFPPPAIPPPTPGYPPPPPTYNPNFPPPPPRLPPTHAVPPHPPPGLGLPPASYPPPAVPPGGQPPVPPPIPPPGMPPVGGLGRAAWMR
CDK15/Cyclin Y, sequence (Q96Q40 whole entry): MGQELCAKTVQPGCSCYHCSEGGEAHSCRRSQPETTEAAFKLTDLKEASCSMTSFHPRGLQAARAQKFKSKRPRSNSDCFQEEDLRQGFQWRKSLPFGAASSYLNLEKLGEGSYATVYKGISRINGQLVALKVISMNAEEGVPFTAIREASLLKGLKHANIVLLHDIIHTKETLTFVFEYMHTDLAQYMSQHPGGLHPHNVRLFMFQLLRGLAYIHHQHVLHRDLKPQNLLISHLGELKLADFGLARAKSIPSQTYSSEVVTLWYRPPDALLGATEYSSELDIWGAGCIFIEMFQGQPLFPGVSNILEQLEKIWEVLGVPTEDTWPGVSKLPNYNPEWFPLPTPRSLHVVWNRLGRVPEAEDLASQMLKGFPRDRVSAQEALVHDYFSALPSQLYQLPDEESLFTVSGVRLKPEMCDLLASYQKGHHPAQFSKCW
CDK15/Cyclin Y, sequence (Q8ND76 whole entry partner): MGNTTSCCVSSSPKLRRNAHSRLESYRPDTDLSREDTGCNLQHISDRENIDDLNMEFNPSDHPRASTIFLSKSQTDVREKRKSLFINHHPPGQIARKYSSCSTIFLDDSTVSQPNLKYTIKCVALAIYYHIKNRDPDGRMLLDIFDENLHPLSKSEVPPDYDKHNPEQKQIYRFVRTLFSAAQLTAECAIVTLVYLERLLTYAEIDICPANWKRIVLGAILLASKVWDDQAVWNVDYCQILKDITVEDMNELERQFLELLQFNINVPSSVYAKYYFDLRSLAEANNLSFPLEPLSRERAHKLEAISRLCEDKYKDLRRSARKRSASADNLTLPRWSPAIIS
CDK11B/Cyclin L2, sequence (P21127 1-782 isoform P21127-2): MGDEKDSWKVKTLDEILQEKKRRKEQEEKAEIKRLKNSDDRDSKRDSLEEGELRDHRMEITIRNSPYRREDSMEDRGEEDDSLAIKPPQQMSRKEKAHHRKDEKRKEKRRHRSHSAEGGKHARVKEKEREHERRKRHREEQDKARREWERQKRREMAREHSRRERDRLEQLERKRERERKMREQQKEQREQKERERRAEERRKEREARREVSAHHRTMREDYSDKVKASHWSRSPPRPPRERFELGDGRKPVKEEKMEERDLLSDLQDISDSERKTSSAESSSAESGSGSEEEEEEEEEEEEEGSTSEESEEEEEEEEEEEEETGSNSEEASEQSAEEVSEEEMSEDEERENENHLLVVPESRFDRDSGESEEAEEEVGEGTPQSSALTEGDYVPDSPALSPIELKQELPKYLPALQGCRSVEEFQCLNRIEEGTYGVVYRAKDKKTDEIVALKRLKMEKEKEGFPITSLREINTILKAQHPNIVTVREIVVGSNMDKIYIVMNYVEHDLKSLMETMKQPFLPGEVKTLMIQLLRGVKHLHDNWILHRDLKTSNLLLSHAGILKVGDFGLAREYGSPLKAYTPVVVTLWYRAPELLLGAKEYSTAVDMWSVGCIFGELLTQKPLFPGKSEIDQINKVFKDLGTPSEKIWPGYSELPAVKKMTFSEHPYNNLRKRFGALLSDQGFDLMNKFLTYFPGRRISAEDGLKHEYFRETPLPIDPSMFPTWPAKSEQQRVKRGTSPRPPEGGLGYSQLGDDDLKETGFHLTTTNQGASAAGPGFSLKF
CDK17/Cyclin Y, sequence (Q00537 whole entry): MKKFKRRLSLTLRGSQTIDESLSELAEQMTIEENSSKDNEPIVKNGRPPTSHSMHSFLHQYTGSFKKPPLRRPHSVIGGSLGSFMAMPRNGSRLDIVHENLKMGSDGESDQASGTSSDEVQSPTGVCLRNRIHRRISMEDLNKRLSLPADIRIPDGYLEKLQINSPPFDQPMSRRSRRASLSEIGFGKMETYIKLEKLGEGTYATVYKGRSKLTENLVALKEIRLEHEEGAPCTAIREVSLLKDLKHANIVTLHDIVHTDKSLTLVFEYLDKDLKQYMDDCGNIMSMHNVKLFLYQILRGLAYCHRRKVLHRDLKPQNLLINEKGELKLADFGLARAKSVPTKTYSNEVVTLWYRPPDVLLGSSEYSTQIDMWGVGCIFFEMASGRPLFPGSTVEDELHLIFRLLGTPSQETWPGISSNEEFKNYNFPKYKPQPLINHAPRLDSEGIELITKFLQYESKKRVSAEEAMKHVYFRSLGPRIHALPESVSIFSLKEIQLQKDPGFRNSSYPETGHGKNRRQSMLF
CDK17/Cyclin Y, sequence (Q8ND76 whole entry partner): as the sequence (Q8ND76 whole entry partner) above
CDK9/Cyclin K, sequence (P50750 whole entry): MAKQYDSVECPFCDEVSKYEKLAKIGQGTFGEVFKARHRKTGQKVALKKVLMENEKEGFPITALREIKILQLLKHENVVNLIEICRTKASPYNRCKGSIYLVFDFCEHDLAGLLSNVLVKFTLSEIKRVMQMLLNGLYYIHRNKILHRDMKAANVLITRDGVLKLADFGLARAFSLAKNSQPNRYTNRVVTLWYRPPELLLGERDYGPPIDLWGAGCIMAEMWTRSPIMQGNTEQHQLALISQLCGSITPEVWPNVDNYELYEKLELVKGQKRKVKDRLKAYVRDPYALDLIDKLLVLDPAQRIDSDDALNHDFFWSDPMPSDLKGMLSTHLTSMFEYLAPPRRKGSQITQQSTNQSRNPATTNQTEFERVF
CDK9/Cyclin K, sequence (O75909 whole entry partner): as the sequence (O75909 whole entry partner) above

## CC(C)c1cnn2c(NCc3ccccc3-n3cccn3)nc(OC3CCCNC3)nc12 (centres unmarked) [LDC4297]
[1]; experiment 1
  Inhibition at 10µM (%): 42.8%
[1]; experiment 2
  Inhibition at 10µM (%): 42.0%
[2]; average
  Inhibition at 10µM (%): 56.5%
[2]; experiment 1
  Inhibition at 10µM (%): 51.7%
[2]; experiment 2
  Inhibition at 10µM (%): 61.3%
[3]; average
  Inhibition at 10µM (%): 53.6%
[3]; average (± SEM where n=3)
  IC50: 760 ± 60 nM
[3]; experiment 1
  Inhibition at 10µM (%): 54.6%
  IC50: 876 nM
[3]; experiment 2
  Inhibition at 10µM (%): 52.6%
  IC50: 685 nM
[3]; experiment 3
  IC50: 732 nM
[4]; average
  Inhibition at 10µM (%): 18.0%
[4]; experiment 1
  Inhibition at 10µM (%): 25.5%
[4]; experiment 2
  Inhibition at 10µM (%): 10.4%
[5]; average
  Inhibition at 10µM (%): 24.9%
[5]; experiment 1
  Inhibition at 10µM (%): 20.0%
[5]; experiment 2
  Inhibition at 10µM (%): 29.8%
[6]; average
  Inhibition at 10µM (%): 89.0%
[6]; experiment 1
  Inhibition at 10µM (%): 88.6%
[6]; experiment 2
  Inhibition at 10µM (%): 89.3%
[7]; CDK15/Y, average
  Inhibition at 10µM (%): 95.3%
[7]; CDK15/Y, average (± SEM where n=3), read-out: IC50
  IC50: 220 ± 20 nM
[7]; CDK15/Y, experiment 1
  Inhibition at 10µM (%): 95.2%
[7]; CDK15/Y, experiment 1, read-out: IC50
  IC50: 220 nM
[7]; CDK15/Y, experiment 2
  Inhibition at 10µM (%): 95.3%
[7]; CDK15/Y, experiment 2, read-out: IC50
  IC50: 260 nM
[7]; CDK15/Y, experiment 3, read-out: IC50
  IC50: 193 nM
[7]; live HEK-293, 2 h, mean ± S.E.M. (n=3) or mean (n=2), read-out: IC50 for CDK/cyclin complexes, CDK15/Y
  IC50: 220 ± 20 nM
[8]; average (± SEM where n=3)
  IC50: 400 ± 30 nM
[8]; experiment 1
  Inhibition at 10µM (%): 87.3%
  IC50: 332 nM
[8]; experiment 2
  Inhibition at 10µM (%): 88.6%
  IC50: 430 nM
[8]; experiment 3
  IC50: 428 nM
[9]; average
  Inhibition at 10µM (%): 90.8%
[9]; average (± SEM where n=3)
  IC50: 200 ± 20 nM
[9]; experiment 1
  Inhibition at 10µM (%): 89.8%
  IC50: 194 nM
[9]; experiment 2
  Inhibition at 10µM (%): 91.8%
  IC50: 170 nM
[9]; experiment 3
  IC50: 242 nM
[10]; experiment 1
  Inhibition at 10µM (%): 53.8%
[10]; experiment 2
  Inhibition at 10µM (%): 57.6%
[11]; average
  Inhibition at 10µM (%): 18.1%
[11]; experiment 1
  Inhibition at 10µM (%): 45.9%
[11]; experiment 2
  Inhibition at 10µM (%): -9.6%
[12]; average
  Inhibition at 10µM (%): 29.7%
[12]; experiment 1
  Inhibition at 10µM (%): 25.4%
[12]; experiment 2
  Inhibition at 10µM (%): 34.0%
